pEC50: −log10 of the molar value.
Tests used:
[1] = molecular target: T1, PPARα receptor (GST-hPPARα LBD) (Homo sapiens, UniProt Q07869); assay: PPARα receptor functional binding assay (CARLA, TR-FRET); format: biochemical; conditions: SRC-1 peptide recruitment
T1 construct: made in house; host or cells: E. coli BL21 (DE3)
T1 sequence (Q07869 167-468): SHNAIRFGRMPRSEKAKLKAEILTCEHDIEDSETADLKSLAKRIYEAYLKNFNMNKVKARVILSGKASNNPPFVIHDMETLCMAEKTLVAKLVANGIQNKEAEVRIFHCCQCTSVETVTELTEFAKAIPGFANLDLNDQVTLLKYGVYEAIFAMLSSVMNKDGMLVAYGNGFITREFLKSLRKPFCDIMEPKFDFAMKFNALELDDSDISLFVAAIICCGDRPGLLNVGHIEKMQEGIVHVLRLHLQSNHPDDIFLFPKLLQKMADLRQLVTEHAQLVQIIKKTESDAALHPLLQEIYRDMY
Method: (§1) The in vitro functional binding to the PPARα, PPARδ and PPARγ receptors is determined as follows:
(§2) The functional binding assays for the PPARα, PPARδ and PPARγ receptors are a variation of the coactivator-dependent receptor ligand assay (CARLA) (Krey et al., Molecular Endocrinology 1997, 11, 779-791). The present CARLA assays use a TR-FRET detection method previously reviewed (Hemmila, J. Biomol. Screening 1999, 4, 303-307; Mathis, J. Biomol. Screening 1999, 4, 309-313). All assays included 3 nM of the glutathione-S-transferase (GST) fusion proteins of either the hPPARα ligand binding domain (LBD) (amino acids 167-468) (GST-hPPARα LBD), GST-hPPARδ LBD (amino acids 139-442) or GST-hPPARγ LBD (amino acids 175-476); 3 nM Eu-labelled anti-GST antibody (Wallac); 30 nM biotinylated steroid receptor coactivator-1 (SRC-1) peptide (an N-terminal biotinylated peptide, […], derived from amino acids 676-700 of SRC-1); and 10 nM streptavidin-labelled allophycocyanin (APC; Prozyme). […] This brings the Eu-labelled anti-GST antibody and the strepavidin-labelled APC in close proximity, thereby facilitating fluorescence energy transfer. […] After mixing all components, the reaction mixture stands for 3 h at RT before reading the TR-FRET signal on a Wallac Victor 2 plate reader (measuring the ratio of signals at 665 nm and 620 nm). […]

[2] = molecular target: T2, PPARγ receptor (GST-hPPARγ LBD) (Homo sapiens, UniProt P37231); assay: PPARγ receptor functional binding assay (CARLA, TR-FRET); format: biochemical; conditions: SRC-1 peptide recruitment
T2 construct: GST-hPPARγ LBD (amino acids 175-476); made in house; host or cells: E. coli BL21 (DE3)
T2 sequence (P37231 175-476 isoform P37231-2): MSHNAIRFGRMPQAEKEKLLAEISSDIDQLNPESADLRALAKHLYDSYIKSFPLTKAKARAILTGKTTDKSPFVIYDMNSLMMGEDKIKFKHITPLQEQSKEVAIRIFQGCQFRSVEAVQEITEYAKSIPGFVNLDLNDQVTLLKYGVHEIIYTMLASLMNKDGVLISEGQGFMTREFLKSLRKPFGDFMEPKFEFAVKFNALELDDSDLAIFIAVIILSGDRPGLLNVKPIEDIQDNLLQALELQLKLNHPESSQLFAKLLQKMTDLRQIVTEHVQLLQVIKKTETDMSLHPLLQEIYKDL
Method: as §1, §2

[3] = molecular target: T3, PPARδ receptor (GST-hPPARδ LBD) (Homo sapiens, UniProt Q03181); assay: PPARδ receptor functional binding assay (CARLA, TR-FRET); format: biochemical; conditions: SRC-1 peptide recruitment
T3 construct: GST-hPPARδ LBD (amino acids 139-442); made in house; host or cells: E. coli BL21 (DE3)
T3 sequence (Q03181 139-441 limits assumed): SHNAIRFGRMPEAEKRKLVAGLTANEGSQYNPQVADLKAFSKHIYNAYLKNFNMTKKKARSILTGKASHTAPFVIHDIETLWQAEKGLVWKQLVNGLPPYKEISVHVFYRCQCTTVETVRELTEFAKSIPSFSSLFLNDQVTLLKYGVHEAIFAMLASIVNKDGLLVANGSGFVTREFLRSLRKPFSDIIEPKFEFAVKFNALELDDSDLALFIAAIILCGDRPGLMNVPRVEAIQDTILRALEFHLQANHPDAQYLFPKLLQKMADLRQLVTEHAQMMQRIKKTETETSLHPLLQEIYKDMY
T3 sequence (Q15788 676-700 partner limits assumed): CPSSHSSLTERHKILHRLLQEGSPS
Method: as §1, §2

[4] = test system: C57BL ob/ob mice; assay: glucose and insulin lowering activity in vivo in ob/ob mice; conditions: daily dose of about 30 mg/kg p.o. in the ob/ob mice
Method: The glucose and insulin lowering activity in vivo can be evaluated as follows:
Adult male C57BL ob/ob mice (Jackson Lab, Bar Harbor, Me.) at the age of 11 weeks are housed six per cage in a reversed light cycle room (light on from 6:00 p.m. to 6:00 a.m.) and given access to Purina rodent chow and water ad libitum. On day 1 tail blood samples are taken at 8:00 am and plasma glucose levels are determined. The animals are randomly assigned to the control and compound groups. The means of plasma glucose values of the groups were matched. Animals are then orally dosed with vehicle (0.5% carboxymethyl-cellulose with 0.2% Tween-80) or compounds (at 30 mg/kg) in vehicle. The mice are dosed daily for a total of 3 days. On day 4 basal blood samples are taken. The plasma samples are analyzed for glucose concentrations using a YS12700 Dual Channel Biochemistry Analyzer (Yellow Springs Instrument Co., Yellow Springs, Ohio) and insulin concentrations using an ELISA assay.

Compound	melting point	other results
Cc1oc(-c2ccccc2)nc1CSc1ccc(S(=O)(=O)Nc2ccccc2C(=O)O)cc1 [Example 3, 2-[4-(5-Methyl-2-phenyl-oxazol-4-ylmethylsulfanyl)-benzenesulfonylamino]-benzoic acid]	182 to 184 °C	
CCOc1ccc(CC(=O)Nc2ccc(S(=O)(=O)Nc3ccccc3C(=O)O)cc2)cc1 [Example 9, 2-{4-[2-(4-Ethoxy-phenyl)-acetylamino]-benzenesulfonylamino}-benzoic acid]	241 to 242 °C	
COc1ccc(C(=O)O)c(OCc2ccc(OCCc3nc(-c4ccccc4)oc3C)cc2)c1 [Example 11, 4-Methoxy-2-{4-[2-(5-methyl-2-phenyl-oxazol-4-yl)-ethoxy]-benzyloxy}-benzoic acid]	113 to 115 °C	
Cc1oc(-c2ccccc2)nc1CCOc1ccc(COc2cc3ccccc3cc2C(=O)O)cc1 [Example 14, 3-{4-[2-(5-Methyl-2-phenyl-oxazol-4-yl)-ethoxy]-benzyloxy}-naphthalene-2-carboxylic acid]	135 to 137 °C	
Cc1oc(-c2ccccc2)nc1COCc1cccc(COc2cc(Cl)ccc2C(=O)O)c1 [Example 18, 4-Chloro-2-[3-(5-methyl-2-phenyl-oxazol-4-ylmethoxymethyl)-benzyloxy]-benzoic acid]	137 °C	

Continued, in another order:

melting point	Compound	other results
167 to 170 °C	Cc1cccc(NS(=O)(=O)c2ccc(OCc3nc(-c4ccccc4)oc3C)cc2)c1C(=O)O [Example 1, 2-Methyl-6-[4-(5-methyl-2-phenyl-oxazol-4-ylmethoxy)-benzenesulfonylamino]-benzoic acid]	pEC50 [1]: ~8.10; pEC50 [2]: ~8.30; pEC50 [3]: ~5.46; serum glucose levels [4]: significantly lowers; serum insulin levels [4]: significantly lowers
223 to 225 °C	Cc1oc(-c2ccccc2)nc1CCOc1ccc(S(=O)(=O)Nc2cc(Cl)ccc2C(=O)O)cc1 [Example 2, 4-Chloro-2-{4-[2-(5-methyl-2-phenyl-oxazol-4-yl)-ethoxy]-benzenesulfonylamino}-benzoic acid]	
85 to 86 °C	O=C(NCCc1ccc(F)cc1)c1ccc(S(=O)(=O)Nc2ccccc2C(=O)O)cc1 [Example 7, 2-{4-[2-(4-Fluoro-phenyl)-ethylcarbamoyl]-benzenesulfonylamino}-benzoic acid]	
108 to 109 °C	CCCOc1ccc(C(=O)O)c(OCc2ccc(OCCc3nc(-c4ccccc4)oc3C)cc2)c1 [Example 15, 2-{4-[2-(5-Methyl-2-phenyl-oxazol-4-yl)-ethoxy]-benzyloxy}-4-propoxy-benzoic acid]	
168 °C	Cc1oc(-c2ccccc2)nc1COc1cccc(COc2cc(Cl)ccc2C(=O)O)c1 [Example 17, 4-Chloro-2-[3-(5-methyl-2-phenyl-oxazol-4-ylmethoxy)-benzyloxy]-benzoic acid]	

Reference: patent US7700637B2, “Organic compounds” (Novartis AG, priority 2003, dated 2010)
